Laboratory results: patent publication US8802678B2, “Carbonylated (aza) cyclohexanes as dopamine D3 receptor ligands” (Bioprojet, priority 2006, dated 2014)

Compound	melting point [°C]
CC(C)(C)c1nc(N2CCN(CC[C@H]3CC[C@H](NC(=O)CCC#N)CC3)CC2)cc(C(F)(F)F)n1 [Example 244]	151
N#CCC(=O)N[C@H]1CC[C@H](CCN2CCN(c3ccccc3Oc3ccccc3)CC2)CC1 [Example 245, 2-Cyano-N-(4-{2-[4-(2-phenoxyphenyl)piperazin-1-yl]ethyl}cyclohexyl)acetamide]	169
Cc1ccc(Cl)cc1N1CCN(CC[C@H]2CC[C@H](NC(=O)CCCC#N)CC2)CC1 [Example 248, N-(4-{2-[4-(5-Chloro-2-methylphenyl)piperazin-1-yl]ethyl}cyclohexyl)-4-cyanobutanamide]	152 to 153
Cc1cc(C)cc(N2CCN(CC[C@H]3CC[C@H](NC(=O)CCCC#N)CC3)CC2)c1 [Example 249, 4-Cyano-N-(4-{2-[4-(3,5-dimethylphenyl)piperazin-1-yl]ethyl}cyclohexyl)butanamide]	169
N#CCCCC(=O)N[C@H]1CC[C@H](CCN2CCN(c3csc4cc(C(F)(F)F)ccc34)CC2)CC1 [Example 253, 4-Cyano-N-(4-{2-[4-(6-trifluoromethylbenzo[b]thiophen-3-yl)piperazin-1-yl]ethyl}cyclohexyl)butanamide]	169
N#CCCCC(=O)N[C@H]1CC[C@H](CCN2CCN(c3cc(F)cc(F)c3)CC2)CC1 [Example 254, 4-Cyano-N-(4-{2-[4-(3,5-difluorophenyl)piperazin-1-yl]ethyl}cyclohexyl)butanamide]	165
O=C(CC(F)(F)F)N[C@H]1CC[C@H](CCN2CCN(c3cccc(C(F)(F)F)c3F)CC2)CC1 [Example 256, 3,3,3-Trifluoro-N-(4-{2-[4-(2-fluoro-3-trifluoromethylphenyl)-piperazin-1-yl]ethyl}cyclohexyl)-propanamide]	198
Cc1c(Cl)cccc1N1CCN(CC[C@H]2CC[C@H](NC(=O)CCCC#N)CC2)CC1 [Example 258, N-(4-{2-[4-(3-Chloro-2-methylphenyl)piperazin-1-yl]ethyl}cyclohexyl)-4-cyanobutanamide]	180 to 183
N#CCCCC(=O)N[C@H]1CC[C@H](CCN2CCN(c3cc(F)cc(Cl)c3)CC2)CC1 [Example 259, N-(4-{2-[4-(3-Chloro-5-fluorophenyl)piperazin-1-yl]ethyl}cyclohexyl)-4-cyanobutanamide]	158 to 159
COCC(=O)N[C@H]1CC[C@H](CCN2CCN(c3cccc(C(F)(F)F)c3F)CC2)CC1 [Example 260, N-(4-{2-[4-(2-Fluoro-3-trifluoromethylphenyl)piperazin-1-yl]ethyl}cyclohexyl)-2-methoxyacetamide]	142
N#CCCCC(=O)N[C@H]1CC[C@H](CCN2CCN(c3cccc4cccnc34)CC2)CC1 [Example 262, 4-Cyano-N-{4-[2-(4-quinolin-8-ylpiperazin-1-yl)ethyl]cyclohexyl}butanamide]	180
CC(=O)CN1CCC(CCN2CCN(c3ccc4scnc4c3)CC2)CC1 [Example 264, 1-{4-[2-(4-Benzothiazol-5-ylpiperazin-1-yl)ethyl]piperidin-1-yl}propan-2-one]	110
O=C(CCC(F)(F)F)N[C@H]1CC[C@H](CCN2CCN(c3cccc(C(F)(F)F)c3)CC2)CC1 [Example 265, 4,4,4-Trifluoro-N-(4-{2-[4-(3-trifluoromethylphenyl)piperazin-1-yl]ethyl}cyclohexyl)butanamide]	152

The next lines start with the values.

melting point [°C]	Compound
220	N#CCC(=O)N[C@H]1CC[C@H](CCN2CCN(c3cccc4ncccc34)CC2)CC1 [Example 239, 2-Cyano-N-{4-[2-(4-quinolin-5-ylpiperazin-1-yl)ethyl]cyclohexyl}acetamide]
194	CS(=O)(=O)Nc1cccc(N2CCN(CC[C@H]3CC[C@H](NC(=O)CC#N)CC3)CC2)c1 [Example 240, 2-Cyano-N-(4-{2-[4-(3-methanesulfonylaminophenyl)piperazin-1-yl]ethyl}cyclohexyl)-acetamide]
209	N#CCC(=O)N[C@H]1CC[C@H](CCN2CCN(c3ccc(F)cc3)CC2)CC1 [Example 241, 2-Cyano-N-(4-{2-[4-(4-fluoro-phenyl)piperazin-1-yl]ethyl}cyclohexyl)acetamide]
237	Cc1ccc(N2CCN(CC[C@H]3CC[C@H](NC(=O)CC#N)CC3)CC2)cc1 [Example 242, 2-Cyano-N-{4-[2-(4-p-tolylpiperazin-1-yl)ethyl]cyclohexyl}acetamide]
138	CCOc1ccccc1N1CCN(CC[C@H]2CC[C@H](NC(=O)CC#N)CC2)CC1 [Example 243, 2-Cyano-N-(4-{2-[4-(2-ethoxyphenyl)piperazin-1-yl]ethyl}cyclohexyl)acetamide]
232 to 233	N#CCC(=O)N[C@H]1CC[C@H](CCN2CCN(c3cccc(Cl)c3C#N)CC2)CC1 [Example 246, N-(4-{2-[4-(3-Chloro-2-cyanophenyl)piperazin-1-yl]ethyl}cyclohexyl)-2-cyanoacetamide]
142 to 143	CCc1ccccc1N1CCN(CC[C@H]2CC[C@H](NC(=O)CC#N)CC2)CC1 [Example 247, 2-Cyano-N-(4-{2-[4-(2-ethylphenyl)piperazin-1-yl]ethyl}cyclohexyl)acetamide]
154	CCc1cccc(N2CCN(CC[C@H]3CC[C@H](NC(=O)CC(F)(F)F)CC3)CC2)c1 [Example 250, N-(4-{2-[4-(3-Ethylphenyl)-piperazin-1-yl]ethyl}cyclohexyl)-3,3,3-trifluoropropanamide]
143	CCc1cccc(N2CCN(CC[C@H]3CC[C@H](NC(=O)CCC#N)CC3)CC2)c1 [Example 251, 3-Cyano-N-(4-{2-[4-(3-ethylphenyl)piperazin-1-yl]ethyl}cyclohexyl)propanamide]
183	CCc1ccc(N2CCN(CC[C@H]3CC[C@H](NC(=O)CC#N)CC3)CC2)c(CC)c1 [Example 255, 2-Cyano-N-(4-{2-[4-(2,4-diethylphenyl)piperazin-1-yl]ethyl}cyclohexyl)acetamide]
133 to 134	Cc1ccc(Cl)cc1N1CCN(CC[C@H]2CC[C@H](NC(=O)CCC#N)CC2)CC1 [Example 257, N-(4-{2-[4-(5-Chloro-2-methylphenyl)piperazin-1-yl]ethyl}cyclohexyl)-3-cyanopropanamide]
179	N#CCCCC(=O)N[C@H]1CC[C@H](CCN2CCN(c3cc(Cl)cc(Cl)c3)CC2)CC1 [Example 261, 4-Cyano-N-(4-{2-[4-(3,5-dichlorophenyl)piperazin-1-yl]ethyl}cyclohexyl)butanamide trans/cis 98/2]
164	N#CCCC(=O)N[C@H]1CC[C@H](CCN2CCN(c3ccccc3F)CC2)CC1 [Example 266, 3-Cyano-N-(4-{2-[4-(2-fluorophenyl)piperazin-1-yl]ethyl}cyclohexyl)propanamide]
143	Cc1cccc(C)c1N1CCN(CC[C@H]2CC[C@H](NC(=O)CC#N)CC2)CC1 [Example 267, 2-Cyano-N-(4-{2-[4-(2,6-dimethylphenyl)piperazin-1-yl]ethyl}cyclohexyl)acetamide]
180	N#CCC(=O)N[C@H]1CC[C@H](CCN2CCN(c3cccc(CO)c3)CC2)CC1 [Example 268, 2-Cyano-N-(4-{2-[4-(3-hydroxymethylphenyl)piperazin-1-yl]ethyl}cyclohexyl)acetamide]
